Assay results taken from paper PMC6271933, “Evaluation of the Toxicity of 5-Aryl-2-Aminoimidazole-Based Biofilm Inhibitors against Eukaryotic Cell Lines, Bone Cells and the Nematode Caenorhabditis elegans” (Molecules, 2014).
pIC50: −log10 of the molar value. Values joined by “and” are separate entries in the source; they are usually repeats but may differ in a detail not shown here. Equal entries are not always repeated.

Key:
[1] = system: human T-lymphocyte (CEM); assay: Cytostatic activity against tumor cell lines (cell number by Coulter counter); type: cell-based; conditions: 72 h, concentration inhibiting cell proliferation by 50%, three days incubation, mean of three repeats
Description: (§1) The IC50 was defined as the compound concentration required to inhibit cell proliferation by 50%. The therapeutic index (TI) was calculated as the ratio of the compound concentration producing toxicity (IC50) to the concentration needed to exert the desired ‘therapeutic’ effect on biofilms of Salmonella and Pseudomonas, indicated by the BIC50 (dose needed to prevent biofilm formation by 50%). The higher the therapeutic index, the broader the safety window of the compound.
(§2) Murine leukemia (L1210), human T-lymphocyte (CEM) and human cervix carcinoma (HeLa) were suspended at 300,000–500,000 cells/mL of culture medium, and 100 µL of a cell suspension was added to 100 µL of an appropriate dilution of the test compounds in 200 µL-wells of 96-well microtiter plates. After incubation at 37 °C for two (L1210), three (CEM) or four (HeLa) days, the cell number was determined using a Coulter counter. The IC50 was defined as the compound concentration required to inhibit cell proliferation by 50%.

[2] = system: human cervix carcinoma (HeLa); assay: as above; type: cell-based; conditions: 96 h, concentration inhibiting cell proliferation by 50%, four days incubation, mean of three repeats
Description: as §1, §2

[3] = system: murine leukemia (L1210); assay: as above; type: cell-based; conditions: Mus musculus, L1210, 48 h; concentration inhibiting cell proliferation by 50%; two days incubation; mean of three repeats
Description: as §1, §2

[4] = system: S. Typhimurium biofilm; conditions: concentration preventing biofilm formation (at 25 °C) by 50%; as previously reported ref 13, 14, 15, 16; read-out: BIC50 S. Typhimurium; cited from earlier work
[5] = system: P. aeruginosa biofilm; conditions: concentration preventing biofilm formation (at 25 °C) by 50%; as previously reported ref 13, 14, 15, 16; read-out: BIC50 P. aeruginosa; cited from earlier work
[6] = system: HMO2, HepG2, HeLa and mouse lymphoma cells; set-up: method as in PMID 12193030, PMID 15165143, PMID 17822294; conditions: including HMO2, HepG2, HeLa and mouse lymphoma cells; cited from earlier work
[7] = system: C. elegans; type: in vivo, Caenorhabditis elegans; conditions: for C. elegans % survival at 25 µM: after 7 days relative to viability at day 0, mean of at least two repeats
Description: Eggs of a double mutant (glp-4Dsek-1D) of C. elegans were grown on NGM/OP50 agar plates (NGM agar plates on the surface inoculated with 100 µL of an overnight culture of OP50 Escherichia coli and stored at 4 °C until use) at 25 °C until all nematodes had reached the L4 stage. Worms were collected and washed with M9 buffer (3 g/L KH2PO4, 6 g/L Na2HPO4, 5 g/L NaCl, 1 mM MgSO4). For toxicity testing, 40 to 50 worms were suspended in 250 μL M9 (supplemented with 10 µg/mL cholesterol, 75 µg/mL ampicillin and 100 µg/mL kanamycin) buffer in each well of 24-well microtiter plates, in the presence or absence (0.5% DMSO control) of 25, 100 or 200 µM of the test compounds and grown for 7 days at 25 °C. The percentage survival of the worms in the presence or absence of anti-biofilm compounds was calculated after 7 days relative to their viability at day 0.

SMILES	pIC50 [1]	pIC50 [2]	pIC50 [3]	pIC50 [4]	pIC50 [5]	cytotoxicity to a variety of cell lines [6]	C. elegans % survival at 25 µM [7]	effect on C. elegans survival at 100 µM ([7]; 100 µM, 7 days of exposure)	effect on C. elegans survival at 200 µM ([7]; 200 µM, 7 days of exposure)
CCCCNc1ncc(-c2ccccc2)[nH]1 [compound 18]	3.18	4.71	4.33	4.60	4.50	–	–	–	–
C/N=C1N=C(/N=c2\[nH]c(Cc3ccc(OC)cc3)c(Cc3cc(OC)c(O)c(OC)c3)n2C)C(=O)N\1C [2l, naamidine I]	–	–	–	–	–	cytotoxic	–	–	–
CCCCCCCCn1c(-c2ccc(-c3ccccc3)cc2)cnc1N [compound 10]	5.08	5.18	5.11	5.48	5.05	–	–	–	–
Nc1ncc(-c2ccc(-c3ccccc3)cc2)[nH]1 [compound 3]	4.87	4.47	4.43	4.76	5.07	–	–	–	–
CCCCCNc1ncc(-c2ccc(Br)cc2)[nH]1 [compound 27]	3.43	4.79	4.83	5.51	4.99	–	–	–	–
CC(C)CNc1ncc(-c2ccccc2)[nH]1 [compound 19]	3.42	4.04	4.08	5.31	5.92	–	–	–	–
COc1ccc(-c2nc(N)[nH]c2-c2ccccc2)cc1 [compound 30]	4.28	4.34	4.19	4.11	–	–	–	–	–
COc1ccc(Cc2nc(N)n(C)c2Cc2cc(O)c(OC)c(OC)c2)cc1 [2e, naamine C]	–	–	–	–	–	cytotoxic	–	–	–
Nc1ncc(-c2ccc(-c3ccccc3)cc2)n1C1CCCCCCC1 [compound 13]	5.31	5.16	5.16	~4.64 and 4.64	5.49	–	–	–	–
Nc1ncc(-c2ccc(Cl)cc2)[nH]1 [compound 2]	4.30	4.14	4.11	4.80	5.46	–	84.9%	–	–
Brc1ccc(-c2cnc(NCCCn3cc(C4CCCCC4)nn3)[nH]2)cc1 [compound 39]	3.40	4.65	4.68	5.08	~4.90 and 4.90	–	99.3%	–	–
Nc1ncc(-c2ccc(Br)cc2)[nH]1 [compound 5, 5-(p-bromophenyl)-2-aminoimidazole]	4.86	4.66	5.00	4.32	5.49	–	90.6%	–	–
COc1ccc(Cc2[nH]/c(=N\C3=NC(=O)N(C)C3=O)n(C)c2Cc2cc(OC)c(O)c(OC)c2)cc1 [2k, naamidine H]	–	–	–	–	–	cytotoxic	–	–	–
CCCCCCCCCCCCCn1c(-c2ccc(Cl)cc2)cnc1N [compound 8]	5.19	5.35	5.14	4.71	4.47	–	–	–	–
c1ccc(-c2cnc(NC3CCCC3)[nH]2)cc1 [compound 20]	3.53	4.56	4.56	4.28	4.47	–	98.1%	–	–
CC(C)CNc1ncc(-c2ccc(Br)cc2)[nH]1 [compound 26]	3.51	4.65	4.50	5.54	5.92	–	–	–	–
CCCCCNc1ncc(-c2ccc(Cl)cc2)[nH]1 [compound 23]	3.49	4.70	4.66	< 3.40	~5.20 and 5.20	–	–	–	–
Clc1ccc(-c2cnc(NC3CCCC3)[nH]2)cc1Cl [compound 29]	3.81	4.10	4.12	5.24	5.10	–	–	–	–
Cc1ccc(-c2nc(N)[nH]c2-c2ccc(Cl)cc2)cc1 [compound 32]	4.99	5.02	4.91	4.89	–	–	–	–	–

SMILES	pIC50 [1]	pIC50 [2]	pIC50 [3]	pIC50 [4]	pIC50 [5]	cytotoxicity to a variety of cell lines [6]	C. elegans % survival at 25 µM [7]	effect on C. elegans survival at 100 µM ([7]; 100 µM, 7 days of exposure)	effect on C. elegans survival at 200 µM ([7]; 200 µM, 7 days of exposure)
CCCCCCCCn1c(-c2ccc(F)cc2)cnc1N [compound 14]	5.14	5.07	5.46	~4.97 and 4.97	5.31	–	–	–	–
CCCCCCCn1c(-c2ccc(-c3ccccc3)cc2)cnc1N [compound 9]	5.09	5.06	5.12	5.03	4.60	–	–	–	–
CCCCCCCCn1c(-c2cccc(Br)c2)cnc1N [compound 16]	5.01	5.10	5.16	4.95	4.39	–	–	–	–
Nc1nc(-c2ccc(Cl)cc2)c(-c2ccccc2)[nH]1 [compound 31]	4.32	4.39	4.23	4.33	–	–	–	–	–
c1ccc(-c2cn(CCCNc3ncc(-c4ccccc4)[nH]3)nn2)cc1 [compound 36]	3.34	4.14	3.66	4.44	< 3.40	–	87.7%	–	–
Nc1ncc(-c2ccc(-c3ccccc3)cc2)n1C1CCCCCC1 [compound 12]	5.27	5.18	5.09	~4.90 and 4.90	5.18	–	–	–	–
Clc1ccc(-c2cnc(NC3CCCC3)[nH]2)cc1 [compound 24]	3.23	4.54	4.45	5.36	4.87	–	100.1%	–	–
Nc1nc(-c2ccc(C(F)(F)F)cc2)c(-c2ccc(Cl)cc2)[nH]1 [compound 33]	4.45	4.58	4.38	4.97	–	–	–	–	–
Nc1ncc(-c2ccc(-c3ccccc3)cc2)n1C1CCCC1 [compound 11]	5.54	5.09	5.37	5.12	3.45	–	–	–	–
Nc1ncc(-c2ccc([N+](=O)[O-])cc2)[nH]1 [compound 4]	4.20	3.97	4.08	4.75	4.46	–	97.3%	–	–
CCCCCOc1ccc(Cc2nc(N)n(Cc3ccccc3)c2-c2ccc(C)cc2)cc1 [compound 35]	5.08	4.83	5.07	4.99	4.56	–	–	–	–
c1ccc(-c2cn(CCCCNc3ncc(-c4ccccc4)[nH]3)nn2)cc1 [compound 37]	3.34	3.97	3.66	4.40	4.72	–	86.4%	–	–
CCCCCCCCn1c(-c2ccccc2)cnc1N [compound 6]	3.33	5.52	5.49	4.92	4.73	–	92.5%	–	–
COc1ccc(-c2cnc(NCCCn3cc(-c4ccc(Br)cc4)nn3)[nH]2)cc1 [compound 38]	3.22	4.77	4.74	4.04	4.37	–	–	–	–
CCCCNc1ncc(-c2ccc(Cl)cc2)[nH]1 [compound 21]	3.43	4.46	4.40	–	–	–	–	–	–
COc1cccc(CCn2c(-c3ccc(Cl)c(Cl)c3)cnc2N)c1 [compound 17]	5.07	5.18	5.16	< 3.40	–	–	–	–	–
CCCCCCCCn1c(-c2ccc(SC)cc2)cnc1N [compound 15, N1-octyl-5-[4-SMePh]-2AI]	5.14	5.20	5.39	5.17	5.55	–	–	–	–
Nc1ncc(-c2ccccc2)[nH]1 [compound 1]	4.03	3.84	4.20	3.89	4.14	–	89.8%	none of the compounds significantly affect	do not significantly affect survival
Brc1ccc(-c2cnc(NC3CCCC3)[nH]2)cc1 [compound 28]	3.17	4.49	4.49	4.92	5.14	–	–	–	–
